“Also recorded” adds a separate entry of the source.
Legend:
158N cells [1] = test: MTT cytotoxicity assay on 158N oligodendrocytes; type: cell-based, Murine; conditions: Mus musculus, 0, 1, 10, 20, 50, 100 µM, mean of two parallel experiments, read-out: IC50 (viability of 158N cells)
Source text: (§1) The cytotoxicity was estimated by the MTT assay against different oligodendrocytes, such as 158 JP and 158 N cells, and 7-ketocholesterol was the control. Different in vitro assays were used to estimate the redox activity, including the dihydroethidium (DHE), 2′,7′-dichlorodihydrofluorescein diacetate (H2-DCFDA), 2,2′-azinobis-3-ethylbenzothioazoline-6-sulphonate (ABTS), 2,2-diphenyl-2-picrylhydrazyl (DPPH), and the bleomycin-induced DNA damage assays.
(§2) Murine oligodendrocytes (158N and 158JP) were seeded at 240,000 cells per 24-well plates and were grown using the Dulbecco’s Modified Eagle Medium supplemented with penicillin antibiotics (1% v/v, streptomycin) and fetal bovine serum (5% v/v) and kept at 37 °C an atmosphere containing 5% CO2 [3]. […] Organ ic sel enides 4 and 5 were prepared in DMSO and then diluted with DMEM up to 1 mM.
The MTT assay was carried out on 158N and 158JP cells after one day of incubation with 7kc (50µM)/different concentrations (0, 1, 10, 20, 50, and 100 µM) of the o rganic selenides 4 an d 5 were. In live cells, the MTT is reduced to formazan by the succinate dehydrogenase mitochondrial enzy me. The microplate reader Tecan Sunrise (Tecan, Lyon, France) was used for the reading of the plates at 570 nm. The IC50 values and the maximu m concentrations without toxicity were estimated for organic selenides 4 and 5 from the respective dose-response curves.
Table S1. Effect of the organoselenium compounds on the viability of 158N and 158JP […]
The cytotoxicity was measured after two days of treatment with different concentrations (0, 1, 10, 20, 50, and 100 µM) of the organic selenides using the MTT assay. The IC50 was estimated as the mean of two parallel experiments;

158JP cells = test: MTT cytotoxicity assay on 158JP oligodendrocytes; type: cell-based, Murine; conditions: mean of two parallel experiments
Source text: as §1, §2
The MTT assay was carried out on 158N and 158JP cells after one day of incubation with 7kc (50µM)/different concentrations (0, 1, 10, 20, 50, and 100 µM) of the o rganic selenides 4 an d 5 were. […] The microplate reader Tecan Sunrise (Tecan, Lyon, France) was used for the reading of the plates at 570 nm. […]
The cytotoxicity was measured after two days of treatment with different concentrations (0, 1, 10, 20, 50, and 100 µM) of the organic selenides using the MTT assay. […]

158N cells [2] = test: H2-DCFDA assay of ROS production (flow cytometry); type: cell-based, Murine; conditions: for Effect on ROS level / H2-DCF intensity (in words): 158 N cells, 0–50 μM, vitamin E as control; for H2-DCFDA assay (% of control), ROS production: 158N cells, mean ± SD
Source text: as §1
(§3) The levels of ROS were monitored with the H2-DCFDA and DHE assays using flow cytometry. Briefly, 158 N cells were mixed with serial concentrations (0–50 μM) of compound 4 and compound 5 using Vitamin E as the control.
ROS overproduction and O2•− were detected with DCF and DHE, respectively. Cultured cells were treated with trypsin re-suspended in PBS (10^6 cells/mL) and kept in the dark for a half-hour at 37°C with H2-DCFDA or DHE at 10 μM and 2 μM and cells were analyzed by flow cytometry.
The green fluorescence of 2’,7’- dichlorofluorescein resulting from the oxidation of H2-DCFDA was analyzed by flow cytometry and collected through a 520/10-nm bandpass filter. DHE, a non-fluorescent compound, rapidly oxidized in ethidium under the action of O2•− to give 2-hydroxyethidium that intercalates with DNA giving red fluorescence of ethidium collected through a 590/10-nm bandpass filter using an excitation of 488 nm and an emission wavelength of 575 nm.
Flomax (Partec) or FlowJo (Tree Star Inc.) software was used for th e data analysis.
Table S2. Evaluation of the effects of compounds on ROS production by H2-DCFDA assay.
H2-DCFDA assay (% of control)
158N Cells were cultured in the presence of different compounds (C1=10; C2= 20; C3=50 µM); Flow cytometry technique was used to evaluate ROS levels via staining cells with H2-DCF; data are shown as mean ± SD and expressed as % control; the significance of the difference between the DMSO and compounds. Treated cells are indicated by (Mann–Whitney test; *: P < 0.05); vitamin E (50 µM) was used as a positive control.

158N cells [3] = test: DHE assay of superoxide anion (O2•−) production (flow cytometry); type: cell-based, Murine; conditions: for DHE assay (% of positive cells), superoxide anion production: 158N cells, mean ± SD
Source text: as §1, §3
ROS overproduction and O2•− were detected with DCF and DHE, respectively. Cultured cells were treated with trypsin re-suspended in PBS (10^6 cells/mL) and kept in the dark for a half-hour at 37°C with H2-DCFDA or DHE at 10 μM and 2 μM and cells were analyzed by flow cytometry. […]
Flomax (Partec) or FlowJo (Tree Star Inc.) software was used for th e data analysis. […]
Table S3. Evaluation of the effects of compounds on superoxide anions (O2•− ) production […]
DHE assay (% of positive cells)
158N Cells were grown in the presence of different compounds (C1=10; C2= 20; C3=50 µM); Flow cytometry techniques was used to estimate the O2•− production via staining with DHE; Data are shown as mean ± SD and expressed as % control; Significance of the difference between the DMSO and compounds. […]

calf thymus DNA = test: Bleomycin-dependent DNA damage assay; type: biochemical; parameters: Bleomycin-dependent DNA damage assay (Abs.): scale not given here; conditions: 2 mM tested compound; for Bleomycin-dependent DNA damage assay (Abs.): absorbance at 532 nm, means of 3 replicates; for Bleomycin-dependent DNA damage, % of Vitamin C: relative to L-ascorbic acid (2 mM)
Source text: as §1
(§4) Bleomycin-dependent DNA damage
The assay was performed according to the reported method with minor modifications. The reaction mixture contained 0.5 mg/ml calf thymus DNA, 0.05 mg/ml b leomy cin sulfate, 5 mM magnesium chloride, 50 mM ferric chloride, 2 mM tested compound. L-ascorbic acid (2 mM) was used as a positive control. The mixture was incubated at 37 °C for 1 hour. The activity of test compounds was evaluated as malondialdehyde equivalents. Thiobarbituric acid reactive substances, which arose from deoxyribose degradation of DNA were assessed. The reaction was terminated by the addition of 0.05 ml 0.1 M EDTA. The color was developed by adding 0.5 ml of 1% w/v thiobarbituric acid and 0.5 ml of 25% v/v HCl (25% v/v). The tube was capped with a screw cap and heated at 80 °C for 30 min. After cooling in ice water, the mixture was then shaken and centrifuged and the extent of DNA damage was measured by an increase in absorbance at […]
Table S4. The Bleomycin-dependent DNA damage assay.
Compd. No. DNA damage assay % of Vitamin C […]
a ascorbic acid is used as a standard for antioxidant activity; values are means of 3 replicates; b not detected.

[4] = GPx-like activity assay (NADPH-coupled, H2O2 reduction); type: biochemical; conditions: ebselen (41 µM) positive control
Experimental: page 19: GPx -like activity The GPx-kit was purchased from Biodiagnostic (Egypt) and used according to the reported method. The sample was prepared by adding assay buffer and NADPH reagent (0 .1 ml; 24 μmol Glutathione, 4.8 μmol NADPH and12 units Glutathione reductase), and organic selenide 4 (0.01 ml, 41 μM). H2O2 (0.8 mM) was then added, and the absorbance was kinetically recorded every 1 min at wavelength 340 nm over three successive minutes. […]/min was calculated. Ebselen (41 μM) was used as the positive control. For colored organoselenium compounds, their absorbance was subtracted at the used wavelength. 0.008 0.007 0.006 0.005 0.004 0.003 0.002 0.001 0 Eb selen 4 5 Figure S11 . GPx-like activity assay (μM. min-1). The reduction of H2O2 by GPx-like activity was tracked by […] of glutathione disulfide (GSSG) and NADPH to glutathion e (GSH, reduced form) and NADP+, respectively. The latter was detected by a decrease in the absorbance at 340 nm. References 1. […], Jacob C. Sulfur, selenium and tellurium pseudopeptides: synthesis and biological evaluation. Bioo rg. Med. Chem. 22(14), 3610-3619 (2014). 2. […]. Synthesis and anti-tumor evaluation of novel organoselenocyanates and symmetrical diselenides dyestuffs . Der Pharma Chemica. 6, 186-193 (2014).

[5] = Bleomycin-induced DNA damage, DPPH and ABTS in vitro radical scavenging assays; conditions: DPPH, ABTS assays
Source text: as §1, §4
The assay was performed according to the reported method with minor modifications. […] The activity of test compounds was evaluated as malondialdehyde equivalents. Thiobarbituric acid reactive substances, which arose from deoxyribose degradation of DNA were assessed. […] After cooling in ice water, the mixture was then shaken and centrifuged and the extent of DNA damage was measured by an increase in absorbance at […]
a ascorbic acid is used as a standard for antioxidant activity; values are means of 3 replicates; b not detected. […]
The hydrogen atom or electron donation ability of the corresponding compounds was measured by estimating the bleaching of the purple color of a methanolic solution of DPPH. […] After 30 min of incubation in the dark, the absorbance was read against a blank at 517 nm. […] The radical scavenging activity was calculated using the following equ ation : I% = (Ablank- […]

HepG2 = tested on: HepG2; parameters: method as in PMID 29864687, doi:10.1016/j.arabjc.2021.103051; conditions: read-out: IC50 (cytotoxic activity against HepG2); cited from earlier work
MCF-7 = tested on: MCF-7; parameters: method as in PMID 29864687, doi:10.1016/j.arabjc.2021.103051; conditions: read-out: IC50 (cytotoxic activity against MCF-7); cited from earlier work

Compound	IC50 (158N cells [1])	IC50 (viability of 158JP cells) (158JP cells; 0, 1, 10, 20, 50, 100 µM)	Effect on ROS level / H2-DCF intensity (in words) (158N cells [2])	H2-DCFDA assay (% of control), ROS production (158N cells [2]; C1 (10 µM))	H2-DCFDA assay (% of control), ROS production (158N cells [2]; C2 (20 µM))	H2-DCFDA assay (% of control), ROS production (158N cells [2]; C3 (50 µM), vitamin E 50 µM)	Effect on O2− production in DHE assay (in words) (158N cells [3]; 158 N cells, 0–50 μM)	DHE assay (% of positive cells), superoxide anion production (158N cells [3]; C1 (10 µM))	DHE assay (% of positive cells), superoxide anion production (158N cells [3]; C2 (20 µM))	DHE assay (% of positive cells), superoxide anion production (158N cells [3]; C3 (50 µM), vitamin E 50 µM)	Bleomycin-dependent DNA damage assay (Abs.) (calf thymus DNA)	Bleomycin-dependent DNA damage, % of Vitamin C (calf thymus DNA)	GPx-like activity (in words) [4]	Pro-oxidant properties compared to vitamin C [5]	IC50 (HepG2)	IC50 (MCF-7)	IC50 (158JP cells; Mus musculus, 0, 1, 10, 20, 50, 100 µM, read-out: IC50 (viability of 158JP cells))
CC1=C([Se]c2ccc(N)cc2)C(=O)c2ccccc2C1=O [Compound 4]	27 µM	no growth inhibition was observed	pronounced pro-oxidant activity	700 ± 143 % of control	854 ± 135 % of control	935 ± 307 % of control	promote the production of O2^−	264 ±25 % of positive cells	406±29 % of positive cells	417±31 % of positive cells	483	48.8%	moderate GPx-like activity	up to 60%	0.9 µM	14.7 µM	
CC(=O)Nc1ccc([Se]C2=C(C)C(=O)c3ccccc3C2=O)cc1 [Compound 5, N-(4-((3-Methyl-1,4-dioxo-1,4-dihydronaphthalen-2-yl)selanyl)phenyl)acetamide]	11 µM		decrease the H2-DCF intensity; also recorded: decreased the ROS level	7 ± 2 % of control	5 ± 1 % of control	6 ± 1 % of control		109±12 % of positive cells	121 ±1 % of positive cells	120 ±4 % of positive cells	581	58.8%	moderate GPx-like activity	up to 60%			
CC(C)CCC[C@@H](C)[C@H]1CC[C@H]2[C@@H]3C(=O)C=C4C[C@@H](O)CC[C@]4(C)[C@H]3CC[C@]12C [Compound 7kc, 7-ketocholesterol, reference compound]	37 µM																74 µM
O=C1O[C@H]([C@@H](O)CO)C(O)=C1O [Vit.C, L-ascorbic acid, reference compound]											989	100%					
VITAMINE E [reference compound]						94 ± 5 % of control				74± 1 % of positive cells							

Source: article PMC8910872, “A Competition between Hydrogen, Stacking, and Halogen Bonding in N-(4-((3-Methyl-1,4-dioxo-1,4-dihydronaphthalen-2-yl)selanyl)phenyl)acetamide: Structure, Hirshfeld Surface Analysis, 3D Energy Framework Approach, and DFT Calculation” (International Journal of Molecular Sciences, 2022)
